In data set [1] the target is T1, Glucagon-like peptide 1 receptor (Homo sapiens, UniProt P43220). Briefly: Agonist activity at human GLP-1R expressed in HEK293 cells assessed as cAMP accumulation incubated for 30 mins by LANCE ultra cAMP assay. In kind it is functional, cell-based. For orientation: Cyclic AMP is a second messenger, typically raised through Gs and lowered through Gi signalling.
Data set [2] deals with T1, Glucagon-like peptide 1 receptor. Briefly: Partial agonist activity at LgBit-tagged GLP-1R (unknown origin) transfected in HEK293 cells co-transfected with Smbit-tagged beta-arrestin-1 assessed as beta-arrestin recruitment incubated for 5 mins by envision microplate reader analysis. In kind it is functional, cell-based. (In general: Activated receptors often draw arrestin, which recruitment assays turn into a signal.)

For data set [3] the target is unchanged. Briefly: Partial agonist activity at LgBit-tagged GLP-1R (unknown origin) transfected in HEK293 cells co-transfected with Smbit-tagged beta-arrestin-1 assessed as beta-arrestin recruitment by measuring maximal efficacy incubated for 5 mins by envision microplate reader analysis relative to control. It counts as functional, cell-based.
Data set [4] is described as follows: Cmax in male ICR mouse at 2 mg/kg, iv measured after 24 hrs by LC-MS/MS analysis. Particulars: in vivo. In kind it is ADME, organism-based.
A short description of data set [5]: AUC (0 to t) in male ICR mouse at 2 mg/kg, iv measured after 24 hrs by LC-MS/MS analysis. Particulars: in vivo. It counts as ADME, organism-based.
Data set [6] in a line: Half-life in male ICR mouse at 2 mg/kg, iv measured after 24 hrs by LC-MS/MS analysis. It counts as ADME, organism-based. The note with it: in vivo.
A short description of data set [7]: MRT (0 to t) in male ICR mouse at 2 mg/kg, iv measured after 24 hrs by LC-MS/MS analysis. It counts as ADME, organism-based. The note with it: in vivo.
A short description of data set [8]: Apparent volume of distribution in male ICR mouse at 2 mg/kg, iv measured after 24 hrs by LC-MS/MS analysis. In kind it is ADME, organism-based. The note with it: in vivo, read-out: Vz.
Data set [9] can be described thus: Clearance in male ICR mouse at 2 mg/kg, iv measured after 24 hrs by LC-MS/MS analysis. Particulars: in vivo. In kind it is ADME, organism-based.
The nature of data set [10]: Cmax in male ICR mouse at 10 mg/kg, po measured after 24 hrs by LC-MS/MS analysis. In kind it is ADME, organism-based. The note with it: in vivo.
Data set [11] can be described thus: Tmax in male ICR mouse at 10 mg/kg, po measured after 24 hrs by LC-MS/MS analysis. Particulars: in vivo. It counts as ADME, organism-based.
Data set [12] can be described thus: AUC (0 to t) in male ICR mouse at 10 mg/kg, po measured after 24 hrs by LC-MS/MS analysis. It counts as ADME, organism-based. The note with it: in vivo.
A short description of data set [13]: Half-life in male ICR mouse at 10 mg/kg, po measured after 24 hrs by LC-MS/MS analysis. The note with it: in vivo. It counts as ADME, organism-based.
Data set [14] can be described thus: MRT (0 to t) in male ICR mouse at 10 mg/kg, po measured after 24 hrs by LC-MS/MS analysis. In kind it is ADME, organism-based. The note with it: in vivo.
Data set [15] is described as follows: Oral bioavailability in male ICR mouse at 10 mg/kg measured after 24 hrs by LC-MS/MS analysis. It counts as ADME, organism-based. The note with it: in vivo.
Data set [16] in a line: Half-life in male rat at 1 mg/kg, iv. In kind it is ADME, organism-based. The note with it: in vivo.
Data set [17] can be described thus: Oral bioavailability in male rat at 5 mg/kg. Particulars: in vivo. It counts as ADME, organism-based.
Data set [18] relates to Mus musculus. Description: Antidiabetic activity in human GLP-1R knockin male mouse model assessed as reduction in blood glucose level at 2 mg/kg, IG preadministered with compound for 1 hrs followed by glucose administration for 3 hrs by oral glucose tolerance test. It counts as functional, organism-based. Particulars: time 4.0 hrs.
Data set [19] concerns Mus musculus. Description: Antidiabetic activity in human GLP-1R knockin male mouse model assessed as reduction in blood glucose level at 2 mg/kg, IG preadministered with compound for 1 hrs followed by first dose of glucose administration for 3 hrs and measured after 300 mins of second glucose administration by oral glucose tolerance test. It counts as functional, organism-based. Particulars: time 540.0 min.

Data set [20] relates to Mus musculus. Description: Appetite suppressing activity in human GLP-1R knockin male mouse model assessed as reduction in food intake at 30 mg/kg, sc measured after 2.5 to 12 hrs. In kind it is functional, organism-based. The note with it: time 2.5-12 hrs.
The test system of data set [21] is Mus musculus. Briefly: Appetite suppressing activity in human GLP-1R knockin male mouse model assessed as reduction in food intake at 30 mg/kg, sc measured at 12 to 24 hrs (light cycle). It counts as functional, organism-based. Particulars: time 12-24 hrs.

Each structure is given as a SMILES string. The source made the active and inactive calls. No cut-off for these calls is given here. A value given as a limit tells only on which side of the number the result lay.

What is called EC50 is the concentration at which the effect is half-maximal. As usually defined, the Emax is the greatest response seen or fitted, relative to the assay's reference. Usually Cmax stands for the peak of the concentration-time curve. As usually defined, the AUC(0-t) is the area under the concentration-time curve up to a stated or last time point. Read a high AUC(0-t) as high exposure. For orientation: half-life means the time in which the quantity being followed falls by half. The low end stands for rapid decline, the high end for slow decline. For orientation: MRT last means the average time that molecules of a dose stay in the body. In general, clearance refers to the volume of plasma or blood freed of the substance per unit of time. In general, Tmax refers to the time from dosing to the highest level. A word on the bioavailability: it is the share of a dose that reaches the circulation, judged against a reference dose that is usually intravenous.

T1 sequence (P43220 whole entry): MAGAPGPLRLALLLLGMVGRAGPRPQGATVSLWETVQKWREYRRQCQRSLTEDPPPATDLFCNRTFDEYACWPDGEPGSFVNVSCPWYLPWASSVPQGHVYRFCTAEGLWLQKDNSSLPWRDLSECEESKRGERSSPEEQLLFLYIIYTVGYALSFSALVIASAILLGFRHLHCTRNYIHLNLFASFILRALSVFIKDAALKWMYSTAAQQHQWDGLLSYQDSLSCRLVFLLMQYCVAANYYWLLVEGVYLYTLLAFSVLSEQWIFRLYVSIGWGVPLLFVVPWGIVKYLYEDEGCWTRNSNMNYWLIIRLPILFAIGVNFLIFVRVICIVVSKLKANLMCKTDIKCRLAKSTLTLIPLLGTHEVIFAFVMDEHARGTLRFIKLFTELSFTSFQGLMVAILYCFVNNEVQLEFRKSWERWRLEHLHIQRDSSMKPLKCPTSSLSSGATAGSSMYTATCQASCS

Regarding `CC(C)[C@@H](NCc1nc2ccc(C(=O)O)cc2n1C[C@@H]1CCO1)C(=O)Nc1cccc([Se]Cc2ccc(C#N)cc2F)n1`, the EC50 in [1] is over 200 µM.
With `COc1cc(C#N)ccc1C[Se]c1cccc(N2C=NN(Cc3nc4c(F)cc(C(=O)O)cc4n3C[C@@H]3CCO3)CC2)n1`, in data set [2], the concentration giving a half-maximal response (EC50) is over 200 µM. In addition, the maximum response (Emax) in data set [3] was 12%. Also, the values for the highest concentration (Cmax) in [4] and in [10] were 13400 ng/mL and 324 ng/mL, respectively. Moreover, the results for the area under the curve AUC(0-t) at 24 h in data set [5] and in data set [12] were 3260 ng·h/mL and 537 ng·h/mL, respectively. For the same compound, the half-life is 4.52 h in data set [6] and 7.02 h in [13]. The mean residence time (MRT last) at 24 h in data set [7] was 0.4 h; in data set [14] it was 2.88 h. Moreover, in data set [8], the Vd turned out to be 4.25 L/kg. The compound further registered a clearance in data set [9] of 10.3 mL/min/kg. The Tmax in data set [11] is 0.5 h. This compound also gave a bioavailability in data set [15] of 3.38%.
For `N#Cc1ccc(C[Se]c2cccc(C3CCN(Cc4nc5ccc(C(=O)O)cc5n4C[C@@H]4CCO4)CC3)n2)c(F)c1`, the half-life in data set [16] was 0.47 h. In data set [17], the bioavailability stood at 23.4%.
On to `N#Cc1ccc(COc2cccc(C3CCN(Cc4nc5ccc(C(=O)O)cc5n4C[C@@H]4CCO4)CC3)n2)c(F)c1`, for which the outcome in the data set with Mus musculus [18], in the data set on Mus musculus [19], with Mus musculus [20] and in the data set on Mus musculus [21] was Active.

(Values after ChEMBL document CHEMBL6096721, “Discovery of Selenium-Containing Derivatives as Potent and Orally Bioavailable GLP-1R Agonists” (J Med Chem, 2025).)
